According to patent US5707966A, “Antithrombotic agents” (Eli Lilly and Company, priority 1995, dated 1998):
Where a name gives a salt, the structure may show the parent alone. Read-outs that look alike come from different tables or passages of the source.

Assays:
Type in all cases: biochemical
[1] = target: Human Thrombin (Homo sapiens, UniProt P00734); assay: Inhibition of amidase activity of thrombin (Kass)
[2] = system: Human plasma; assay: Human plasma anticoagulation, activated partial thromboplastin time (APTT); settings: concentration required to double the APTT, linear extrapolation
Outline: (§1)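 Citrated human plasma + cpd (broad conc. range); instrument clot timing. PT: saline/Thromboplastin-C. APTT: Actin 120 s, then CaCl2 0.02M. TT: saline/bovine thrombin 10 NIH units/mL. Value = conc. doubling clotting time, linear extrapolation.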

[3] = target: T1, factor Xa (Homo sapiens, UniProt P00742); assay: Kass with factor Xa, chromogenic substrate; settings: substrate N-Benzoyl-Ile-Glu-Gly-Arg-p-nitroanilide
T1 construct: Human factors X, Xa, IXa, XIa, and XIIa are purchased; purchased Enzyme Research Laboratories, South Bend, Ind

[4] = system: Human plasma; assay: Human plasma anticoagulation, thrombin time (TT); settings: concentration required to double the thrombin time, linear extrapolation
Outline: as §1

[5] = target: T2, Bovine trypsin (Bos taurus, UniProt P00760); assay: Kass with trypsin, chromogenic substrate; settings: substrate N-Benzoyl-Phe-Val-Arg-p-nitroanilide
T2 construct: Bovine trypsin is purchased; purchased Worthington Biochemicals, Freehold, N.J
T2 sequence (P00760 24-246): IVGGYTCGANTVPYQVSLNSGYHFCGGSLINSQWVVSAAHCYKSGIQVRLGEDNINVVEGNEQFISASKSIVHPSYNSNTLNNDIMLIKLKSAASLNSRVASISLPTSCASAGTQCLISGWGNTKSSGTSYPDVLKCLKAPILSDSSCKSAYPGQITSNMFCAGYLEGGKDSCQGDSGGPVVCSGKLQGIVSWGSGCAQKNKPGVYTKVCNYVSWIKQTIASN

[6] = target: T3, Human plasmin (Homo sapiens, UniProt P00747); assay: Kass with plasmin, chromogenic substrate; settings: substrate H-D-Val-Leu-Lys-p-nitroanilide
T3 construct: Human plasmin is purchased; purchased Boehringer Mannheim, Indianapolis, Ind

[7] = system: Human plasma; assay: Human plasma anticoagulation, prothrombin time (PT); settings: concentration required to double the PT, linear extrapolation
Outline: as §1

[8] = target: T4, t-PA (Homo sapiens, UniProt P00750); assay: Kass with t-PA, chromogenic substrate; settings: substrate H-D-Ile-Pro-Arg-p-nitroanilide
T4 construct: purchased American Diagnostica, Greenwich, Conn
Procedure: By substantially following the procedures described above for human thrombin, and using other human blood coagulation system serine proteases and proteases of the fibrinolytic system with the appropriate chromogenic substrates, identified below, selectivity of the compounds of the present invention with respect to the coagulation factor serine proteases and with respect to the fibrinolytic system serine proteases are evaluated as well as their substantial lack of interference with serine proteases of the fibrinolytic system. Thrombin inhibitors preferably should spare fibrinolysis induced by urokinase, tissue plasminogen activator (t-PA) and streptokinase. This would be important to the therapeutic use of such agents as an adjunct to streptokinase, t-PA or urokinase thrombolytic therapy and to the use of such agents as an endogenous fibrinolysis-sparing (with respect to t-PA and urokinase) antithrombotic agent. In addition to the lack of interference with the amidase activity of the fibrinolytic proteases, such fibrinolytic system sparing can be studied by the use of human plasma clots and their lysis by the respective fibrinolytic plasminogen activators.
Human plasmin is purchased from Boehringer Mannheim, Indianapolis, Ind.; nt-PA is purchased as single chain activity reference from American Diagnostica, Greenwich, Conn. modified-t-PA6 (mt-PA6) is prepared at Eli Lilly and Company by procedure known in the art (See, Burck, et al., J. Biol. Chem., 265, […] (1990). Plasmin chromogenic substrate H-D-Val-Leu-Lys-p-nitroanilide and tissue plasminogen activator (t-PA) substrate H-D-Ile-Pro-Arg-p-nitroanilide are purchased from Kabi Vitrum, Stockholm, Sweden.

[9] = mean over a range of concentrations, […]

T1 sequence (P00742 235-488 limits assumed): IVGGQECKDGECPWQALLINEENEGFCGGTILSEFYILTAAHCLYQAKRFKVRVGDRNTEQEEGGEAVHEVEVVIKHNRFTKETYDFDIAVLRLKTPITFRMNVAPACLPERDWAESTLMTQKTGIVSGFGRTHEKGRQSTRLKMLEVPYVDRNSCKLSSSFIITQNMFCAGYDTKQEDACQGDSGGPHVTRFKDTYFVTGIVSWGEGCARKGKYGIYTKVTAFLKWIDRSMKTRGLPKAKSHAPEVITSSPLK
T1 sequence (P00742 41-179 partner limits assumed): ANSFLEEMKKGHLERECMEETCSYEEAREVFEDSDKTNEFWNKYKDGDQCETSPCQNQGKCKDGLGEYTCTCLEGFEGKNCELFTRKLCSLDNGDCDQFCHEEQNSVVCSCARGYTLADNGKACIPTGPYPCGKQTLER
T3 sequence (P00747 97-810): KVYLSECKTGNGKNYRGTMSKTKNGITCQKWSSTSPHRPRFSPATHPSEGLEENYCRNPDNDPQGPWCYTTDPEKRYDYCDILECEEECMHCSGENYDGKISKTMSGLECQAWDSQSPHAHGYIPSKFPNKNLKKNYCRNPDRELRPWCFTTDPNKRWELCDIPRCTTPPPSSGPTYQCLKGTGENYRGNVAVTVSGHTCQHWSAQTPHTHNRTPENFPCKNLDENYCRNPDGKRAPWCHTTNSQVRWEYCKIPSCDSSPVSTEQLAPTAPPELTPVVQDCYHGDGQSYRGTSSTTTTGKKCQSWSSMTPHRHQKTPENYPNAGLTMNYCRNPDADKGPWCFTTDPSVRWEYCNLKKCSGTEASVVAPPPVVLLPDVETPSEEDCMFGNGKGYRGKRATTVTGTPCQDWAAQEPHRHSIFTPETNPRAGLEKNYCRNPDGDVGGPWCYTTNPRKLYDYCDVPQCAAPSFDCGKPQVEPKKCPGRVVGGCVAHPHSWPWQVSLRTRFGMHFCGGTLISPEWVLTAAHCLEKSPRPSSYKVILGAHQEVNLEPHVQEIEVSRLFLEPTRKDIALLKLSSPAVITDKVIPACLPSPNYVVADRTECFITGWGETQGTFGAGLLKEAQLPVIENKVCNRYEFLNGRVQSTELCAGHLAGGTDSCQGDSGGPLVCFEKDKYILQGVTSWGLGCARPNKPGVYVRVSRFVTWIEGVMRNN
T3 sequence (P00747 97-580 partner limits assumed): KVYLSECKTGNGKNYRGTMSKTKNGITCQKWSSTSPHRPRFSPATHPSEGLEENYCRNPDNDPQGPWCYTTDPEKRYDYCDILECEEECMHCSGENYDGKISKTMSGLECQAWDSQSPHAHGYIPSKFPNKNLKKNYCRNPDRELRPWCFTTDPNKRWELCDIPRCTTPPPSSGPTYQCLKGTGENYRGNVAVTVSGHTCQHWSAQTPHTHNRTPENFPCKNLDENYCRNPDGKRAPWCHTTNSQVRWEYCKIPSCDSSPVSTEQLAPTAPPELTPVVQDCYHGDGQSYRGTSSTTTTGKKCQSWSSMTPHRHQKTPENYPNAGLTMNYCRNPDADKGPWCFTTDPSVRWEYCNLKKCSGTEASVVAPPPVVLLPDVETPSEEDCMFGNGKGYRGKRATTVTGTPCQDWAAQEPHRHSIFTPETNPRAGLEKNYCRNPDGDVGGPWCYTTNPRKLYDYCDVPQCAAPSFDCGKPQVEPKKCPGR
T4 sequence (P00750 36-562): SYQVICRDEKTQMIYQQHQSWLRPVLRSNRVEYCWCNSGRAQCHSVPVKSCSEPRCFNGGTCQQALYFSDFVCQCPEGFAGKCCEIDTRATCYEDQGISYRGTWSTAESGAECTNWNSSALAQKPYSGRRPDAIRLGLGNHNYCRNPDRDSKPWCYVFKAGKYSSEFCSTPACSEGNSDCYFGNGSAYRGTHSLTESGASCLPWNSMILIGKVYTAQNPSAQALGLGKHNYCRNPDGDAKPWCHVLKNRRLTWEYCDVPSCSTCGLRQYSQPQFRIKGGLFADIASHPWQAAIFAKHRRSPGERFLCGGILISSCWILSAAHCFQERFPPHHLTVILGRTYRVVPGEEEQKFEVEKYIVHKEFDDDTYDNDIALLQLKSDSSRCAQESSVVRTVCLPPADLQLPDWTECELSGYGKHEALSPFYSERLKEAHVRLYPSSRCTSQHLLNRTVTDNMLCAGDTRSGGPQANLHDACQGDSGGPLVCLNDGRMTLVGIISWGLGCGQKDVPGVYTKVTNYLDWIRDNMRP

Compound | Kass Human Thrombin [1, 9] | Human Plasma Anticoagulation 2× Clotting time APTT [2] | Kass Xa [3] | Human Plasma Anticoagulation 2× Clotting time TT [4] | Kass Trypsin [5] | Kass Plasmin [6] | Human Plasma Anticoagulation 2× Clotting time PT [7] | Kass t-PA [8] | Kass Human Thrombin [1]
N=C(N)c1cccc(CCCNC(=O)[C@@H]2CCCN2C(=O)[C@@H]2NCC[C@@H]3CCCC[C@@H]32)c1 [Example 33, 1-Piq-Pro-m-NHCH2 CH2 CH2 --C6 H4 C(=NH)NH2.HCl] | 0.04 × 10^6 (L/mole) | 59,300 ng/mL | 0.04 × 10^6 (L/mole) | 18,900 ng/mL | 0.02 × 10^6 (L/mole) | < 0.001 × 10^6 (L/mole) | 70,900 ng/mL | < 0.001 × 10^6 (L/mole) | –
CCS(=O)(=O)N[C@H](Cc1ccccc1)C(=O)N1CCC[C@H]1C(=O)NCCc1ccc(NC(=N)N)cc1 [Example 35, EtSO2 -D-Phe-Pro-p-NHCH2 CH2 C6 H4 CNH(NH)NH2.HCl] | 0.09 × 10^6 (L/mole) | 50,400 ng/mL | < 0.001 × 10^6 (L/mole) | 4,500 ng/mL | 0.04 × 10^6 (L/mole) | < 0.001 × 10^6 (L/mole) | 78,400 ng/mL | < 0.001 × 10^6 (L/mole) | –
CCS(=O)(=O)N[C@H](Cc1ccccc1)C(=O)N1CCC[C@H]1C(=O)NCc1cccc(NC(=N)N)c1 [Example 36, EtSO2 -D-Phe-Pro-m-NHCH2 C6 H4 NHC(NH)NH2.HCl] | 0.06 × 10^6 (L/mole) | > 91,000 ng/mL | < 0.001 × 10^6 (L/mole) | 7,700 ng/mL | 0.01 × 10^6 (L/mole) | < 0.001 × 10^6 (L/mole) | > 91,000 ng/mL | < 0.001 × 10^6 (L/mole) | –
N=C(N)c1ccc(CNC(=O)[C@@H]2CCCN2C(=O)[C@@H](CC2CCCCC2)NCC(=O)O)cc1 [Example 48, HOOCCH2 -D-Cha-Pro-p-NHCH2 C6 H4 C(NH)NH2.HCl] | 4,100 × 10^6 (L/mole) | 33 ng/mL | 5.5 × 10^6 (L/mole) | 2 ng/mL | 250 × 10^6 (L/mole) | 0.43 × 10^6 (L/mole) | 59 ng/mL | 0.05 × 10^6 (L/mole) | –
O=C(O)CN[C@H](CC1CCCCC1)C(=O)N1CCC[C@H]1C(=O)NCC1CCNCC1 [Example 53, HO2 CCH2 -D-Cha-Pro-4-NHCH2 -piperidine.HCl] | 0.36 × 10^6 (L/mole) | 33,800 ng/mL | < 0.001 × 10^6 (L/mole) | 1,400 ng/mL | 0.1 × 10^6 (L/mole) | < 0.001 × 10^6 (L/mole) | 34,500 ng/mL | < 0.001 × 10^6 (L/mole) | –
O=C(O)CN[C@H](CC1CCCCC1)C(=O)N1CCC[C@H]1C(=O)NCCC1CCNCC1 [Example 54, HO2 CCH2 -D-Cha-Pro-4-NHCH2 CH2 -piperidine.HCl] | 2.8 × 10^6 (L/mole) | 3,300 ng/mL | < 0.001 × 10^6 (L/mole) | 140 ng/mL | 0.52 × 10^6 (L/mole) | 0.01 × 10^6 (L/mole) | 2,200 ng/mL | < 0.001 × 10^6 (L/mole) | –
O=C(O)CN[C@H](CC1CCCCC1)C(=O)N1CCC[C@H]1C(=O)NCCCC1CCNCC1 [Example 55, HO2 CCH2 -D-Cha-Pro-4-NHCH2 CH2 CH2 -piperidine.HCl] | 0.01 × 10^6 (L/mole) | > 91,000 ng/mL | < 0.001 × 10^6 (L/mole) | 55,800 ng/mL | 0.01 × 10^6 (L/mole) | < 0.001 × 10^6 (L/mole) | > 91,000 ng/mL | < 0.001 × 10^6 (L/mole) | –
N=C(N)N1CCC(CNC(=O)[C@@H]2CCCN2C(=O)[C@@H](CC2CCCCC2)NCC(=O)O)CC1 [Example 56, HO2 CCH2 -D-Cha-Pro-4-NHCH2 -1-amidinopiperidine.HCl] | 490 × 10^6 (L/mole) | 160 ng/mL | 0.20 × 10^6 (L/mole) | 5 ng/mL | 3.6 × 10^6 (L/mole) | 0.01 × 10^6 (L/mole) | 200 ng/mL | < 0.001 × 10^6 (L/mole) | –
N=C(N)N1CCC(CCNC(=O)[C@@H]2CCCN2C(=O)[C@@H](CC2CCCCC2)NCC(=O)O)CC1 [Example 57, HO2 CCH2 -D-Cha-Pro-4-NHCH2 CH2 -1-amidinopiperidine.HCl] | – | 360 ng/mL | 0.01 × 10^6 (L/mole) | 14 ng/mL | 0.24 × 10^6 (L/mole) | 0.01 × 10^6 (L/mole) | 340 ng/mL | < 0.001 × 10^6 (L/mole) | 39
O=C(O)CN[C@H](CC1CCCCC1)C(=O)N1CCC[C@H]1C(=O)NCC1=CCNCC1 [Example 58, HO2 CCH2 -D-Cha-Pro-4-NHCH2 -3,4-dehydro-piperidine.HCl] | 0.60 × 10^6 (L/mole) | 14,300 ng/mL | < 0.001 × 10^6 (L/mole) | 710 ng/mL | 0.40 × 10^6 (L/mole) | < 0.001 × 10^6 (L/mole) | 11,400 ng/mL | < 0.001 × 10^6 (L/mole) | –
O=C(O)CN[C@H](CC1CCCCC1)C(=O)N1CCC[C@H]1C(=O)NCCC1=CCNCC1 [Example 59, HO2 CCH2 -D-Cha-Pro-4-NHCH2 CH2 -3,4-dehydro-piperidine.HCl] | 1.10 × 10^6 (L/mole) | 5,500 ng/mL | < 0.001 × 10^6 (L/mole) | 420 ng/mL | 0.21 × 10^6 (L/mole) | < 0.001 × 10^6 (L/mole) | 7,000 ng/mL | < 0.001 × 10^6 (L/mole) | –
O=C(O)CN[C@H](CC1CCCCC1)C(=O)N1CCC[C@H]1C(=O)NCCCC1=CCNCC1 [Example 60, HO2 CCH2 -D-Cha-Pro-4-NHCH2 CH2 CH2 -3,4-dehydro-piperidine.HCl] | 0.24 × 10^6 (L/mole) | 22,200 ng/mL | < 0.001 × 10^6 (L/mole) | 3,200 ng/mL | 0.03 × 10^6 (L/mole) | < 0.001 × 10^6 (L/mole) | 77,700 ng/mL | < 0.001 × 10^6 (L/mole) | –
N=C(N)NCCCCNC(=O)[C@@H]1CCCN1C(=O)[C@@H]1NCC[C@H]2CCCC[C@H]21 [Example 61, N-[4-[(aminoiminomethyl)amino]butyl]-1-[[(4aR,8aR)-decahydro-1(R)-isoquinolinyl]carbonyl]-1-prolinamide trihydrochloride] | 63 × 10^6 (L/mole) | 679 ng/mL | 0.03 × 10^6 (L/mole) | 45 ng/mL | 1.0 × 10^6 (L/mole) | 0.004 × 10^6 (L/mole) | 756 ng/mL | 0.008 × 10^6 (L/mole) | –
